{
  "source": "patent US5225543A",
  "about": "“Receptors method for purification of G protein-linked” (priority 1991, dated 1993)",
  "key": {"[1]": {"biological_target": "T1, SRIF receptor (GH4 C1 membranes) (Rattus norvegicus, UniProt P30680)", "T1 construct": "GH4 C1 rat pituitary tumor cells; endogenous in cells; host or cells: GH4 C1 rat pituitary tumor cells (isolated membranes)", "T1 sequence (P30680 whole entry)": "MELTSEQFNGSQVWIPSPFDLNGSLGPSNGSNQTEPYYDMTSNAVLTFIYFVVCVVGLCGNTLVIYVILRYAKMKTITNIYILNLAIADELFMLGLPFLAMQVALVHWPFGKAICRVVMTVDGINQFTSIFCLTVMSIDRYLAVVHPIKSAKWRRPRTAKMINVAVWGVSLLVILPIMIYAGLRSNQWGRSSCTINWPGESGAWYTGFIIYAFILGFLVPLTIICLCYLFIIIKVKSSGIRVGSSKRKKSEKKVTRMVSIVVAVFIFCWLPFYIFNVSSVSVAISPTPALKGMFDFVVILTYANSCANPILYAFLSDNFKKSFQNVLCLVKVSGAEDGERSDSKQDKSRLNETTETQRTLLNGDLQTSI", "experiment": "Purification method as receptor assay: binding of biotinyl-S28 to GH4 C1 membranes (FIG. 10)", "conditions": "10 nM B28 in binding step", "procedure": "Soluble material is adsorbed to streptavidin-Sepharose for 4 hours and eluted with 100 uM GTP-gamma-S+100 uM EDTA+100 uM EGTA. Then the GTP-gamma-S eluates are incubated overnight with immobilized wheat germ agglutinin (to adsorb glycoproteins, including the receptor).\nThe WGA-agarose pellets are washed and then boiled in SDS polyacrylamide gel sample buffer (to melt the agarose and solubilize proteins). […] The proteins not bound to WGA are processed separately and also separated by SDS-PAGE (FIG. 10C)."}, "[2]": {"biological_target": "T1, SRIF receptor (GH4 C1 membranes)", "experiment": "Competitive radioligand binding vs [^125 I]Tyr11-S14 on GH4 C1 membranes (FIG. 4)", "conditions": "vs [^125 I]Tyr11-S14; 20 ug GH4 C1 membrane protein, 100,000 cpm (FIG. 4B)", "method": "Membrane Isolation--1-8 liter batches of cells at densities of 6-10×10^5 cells/ml are pelleted in conical bottom glass centrifuge bottles (600 or 800 ml; Bellco) at 1,000× g for 5 min. The supernatants are carefully poured off and the cells are resuspended in ice cold homogenization medium (1 mM Na-bicarbonate at pH 7.6, 1 mM EDTA and 1 mM EGTA) containing 0.7% (vol/vol) of the \"100×4pase\" protease inhibitor cocktail (see below). Twenty ml of homogenization medium is used for every liter of suspension culture. After 5 min. on ice, the hypotonically swollen cells are homogenized with 10 strokes of a tight fitting Dounce homogenizer (Kontes, type A pestle). The homogenate is centrifuged at 1,000× g for 10 min. and the supernatant is removed and kept on ice. The 1,000× g pellet containing residual intact cells, nuclei and DNA is washed by gently homogenizing with 4 strokes with a type B pestle in one half the original volume of homogenization medium and recentrifuging for 10 min. at 1,000× g. The final 1,000× g pellet consists mostly of DNA and is discarded. The 1,000× g supernatants are combined and centrifuged at 20,000× g for 30 min. The 20,000× g pellet is washed twice in 25 mM Tris (pH 7.4), with centrifugation for 25 min. at 20,000 2 g. Final membrane pellets are resuspended in 25 mM Tris buffer to concentrations of 4-10 mg membrane protein/ml. Then the 100× 4pase protease inhibitor cocktails are added to 1% of final volume and aliquots are frozen on dry ice. Membranes are stored at -90° C. until needed. Membrane protein is assayed with the Bradford dye binding assay (Bio-Rad).\nStandard Binding Assays--Binding assays are done in a binding buffer containing 50 mM HEPES (pH 7.4), 0.5% BSA and 5 mM MgCl2. The standard assay for [^125 I]SRIF analog binding to GH4 CL membranes, done in 96 well microtiter plates (Dynatech Immulon II Removawell plates), is carried out as follows: 1. Radioligand is diluted in binding buffer+PMSF/Baci to the desired cpm per vol. of 50 μl and then 50 μl aliquots are added to the wells. For non-specific binding samples, 5 μl of 40 μM cold S14 is also added per well. […] Binding is initiated by adding 150 μl per well of membrane diluted to the desired concentration (10-30 ug membrane protein/well) in binding buffer+PMSF/Baci. Plates are then covered with Linbro mylar plate sealers (Flow Labs) and placed on a Dynatech Microshaker II and binding is allowed to proceed at room temperature for 1-2 hours. Binding is stopped by centrifuging the plate for 15 minutes at 2,000×g. The supernatants are dumped off and membrane pellets washed once by addition of 200 μl of ice cold binding buffer, brief shaking and recentrifugation. Finally the individual wells are placed in 12×75 mm tubes and counted in an LKB Gammamaster counter (78% efficiency). […]"}, "[3]": {"biological_target": "T1, SRIF receptor (GH4 C1 membranes)", "experiment": "Tracing of SRIF R:L complex with [^125 I]Bio-S28 during purification: membrane binding and solubilization (Table 4)", "procedure": "1. Binding of biotinyl-SRIF to GH4 C1 membranes. The binding step is carried out as described in Section 4 of \"Receptor Binding Methods\". Incubations are for 1 hour at room temperature. In the standard purification protocol, the binding incubations contain 10 nM […]/[^125 I]Bio-S28 is added as a tracer at levels of 5,000-100,000 cpm per mg of membrane protein. Control incubations contain 10 uM cold S14 to saturate the receptor with non-biotinylated ligand.\n2. Solubilization of receptor:ligand complex. This is done as described (\"Membrane Solubilization\"), with 0.15% deoxycholate:lysolecithin in solubilization buffer containing 0.2 mM MgCl2, to obtain 100,000×g supernatants containing solubilized R:L complex.\n(§1) A preparation of SRIF receptor is purified from 17 mg GH4 C1 pituitary cell membranes as described in \"Methods: Receptor Purification\". Some important features of this experiment are as follows: Two 17 mg samples of membranes are used. Both are incubated with 10^-8 M Bio-S28. However, one sample also receives 10^-5 M non-biotinyl S14 for 23 minutes before addition of any Bio-S28. This serves to block binding of Bio-S28 and creates a control to show non-specific binding of proteins to the streptavidin column. Also, each sample received 1.5×10^8 cpm of [^125 I]Bio-S28 as a tracer. This is added 2-3 minutes before the addition of cold Bio-S28. After a 1-hour binding step, the membranes are washed in binding buffer without BSA and solubilized in solubilization buffer containing 0.15% deoxycholate:lysolecithin and 0.2 mM MgCl2. Each 100,000×g supernatant (17 ml) is incubated with 0.6 ml of streptavidin-agarose for 4 hours at 4°-10° C. The SA-agarose is transferred to a 0.7 cm diameter column, washed and eluted with EDTA/EGTA/GTP-gamma-S as described (\"Methods: Receptor Purification\").\n(§2) Radioligand is followed through the procedure to estimate solubilization of R:L complex and % initial binding of R:L complex to immobilized streptavidin."}, "streptavidin": {"biological_target": "T2, streptavidin (Streptomyces avidinii, UniProt P22629)", "T2 construct": "purchased Pierce Chemical Co", "T2 sequence (P22629 25-183)": "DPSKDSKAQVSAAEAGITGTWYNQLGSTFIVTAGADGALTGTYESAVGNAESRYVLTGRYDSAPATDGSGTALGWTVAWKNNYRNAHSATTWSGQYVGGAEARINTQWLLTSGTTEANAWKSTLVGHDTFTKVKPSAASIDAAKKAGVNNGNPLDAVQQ", "experiment": "Tracing of SRIF R:L complex with [^125 I]Bio-S28 during purification: binding to immobilized streptavidin (Table 4)", "procedure": "3. Adsorption of solubilized R:L complex to streptavidin. Immobilized streptavidin (streptavidin cross-linked to 6% beaded agarose, Pierce Chemical Co.; \"SA-agarose\") is washed in solubilization buffer and added to the solubilized membranes as 1/30 of the final volume. This mixture is incubated with constant stirring by end-over-end rotation for 4-5 hours at 4°-10° C. Then the mixture is applied to a column and the non-bound material is washed through. Binding of radioligand to SA-agarose is determined by comparing cpm in the 100,000×g supernatant with that in the column effluent after adsorption to SA-agarose. Finally, the column is washed with 12-15 column volumes of solubilization buffer+0.15% deoxycholate:lysolecithin+1/500 (vol/vol) 100×4pase.\nas §1, §2"}, "[4]": {"conditions": "10^-8 M Bio-S28 + 10^-5 M S14 (NSB)"}, "[5]": {"conditions": "10^-8 M Bio-S28, [^125 I]Bio-S28 tracer"}, "[6]": {"conditions": "10^-8 M Bio-S28, [^125 I]Bio-S28 tracer, 4 hours"}},
  "data": [
    {"substance": "Biotinyl-NH-(Leu8, D-Trp22, Tyr25)SRIF28 [Bio-S28]", "values": [
      {"measurement": "total specific binding at or near saturation", "setting": "[1]", "value": 1.8, "unit": "pmol"},
      {"measurement": "IC50", "setting": "[2]", "value": 0.3, "unit": "nM"},
      {"measurement": "CPM initially bound to membranes (NSB)", "setting": "[3]; [4]", "value": "9,316 CPM"},
      {"measurement": "CPM solubilized by deoxycholate:lysolecithin (%) (NSB)", "setting": "[3]; [4]", "value": 73, "unit": "%"},
      {"measurement": "CPM solubilized by deoxycholate:lysolecithin (NSB)", "setting": "[3]; [4]", "value": "6,834 CPM"},
      {"measurement": "CPM initially bound to membranes", "setting": "[3]; [5]", "value": "59,132 CPM"},
      {"measurement": "CPM solubilized by deoxycholate:lysolecithin", "setting": "[3]; [5]", "value": "54,094 CPM"},
      {"measurement": "CPM solubilized by deoxycholate:lysolecithin (%)", "setting": "[3]; [5]", "value": 91, "unit": "%"},
      {"measurement": "Solubilized CPM non-bound to streptavidin (%) (NSB)", "setting": "streptavidin; [4]", "value": 15, "unit": "%"},
      {"measurement": "Solubilized CPM non-bound to streptavidin (NSB)", "setting": "streptavidin; [4]", "value": "1,054 CPM"},
      {"measurement": "Solubilized CPM non-bound to streptavidin", "setting": "streptavidin; [6]", "value": "14,960 CPM"},
      {"measurement": "Solubilized CPM non-bound to streptavidin (%)", "setting": "streptavidin; [6]", "value": 28, "unit": "%"}
    ]}
  ]
}
